pIC50: −log10 of the molar value.

In the assay the target is T1, human TRPV1 receptor (Homo sapiens, UniProt Q8NER1).
T1 construct: expressed in transfected cells
T1 sequence (Q8NER1 whole entry): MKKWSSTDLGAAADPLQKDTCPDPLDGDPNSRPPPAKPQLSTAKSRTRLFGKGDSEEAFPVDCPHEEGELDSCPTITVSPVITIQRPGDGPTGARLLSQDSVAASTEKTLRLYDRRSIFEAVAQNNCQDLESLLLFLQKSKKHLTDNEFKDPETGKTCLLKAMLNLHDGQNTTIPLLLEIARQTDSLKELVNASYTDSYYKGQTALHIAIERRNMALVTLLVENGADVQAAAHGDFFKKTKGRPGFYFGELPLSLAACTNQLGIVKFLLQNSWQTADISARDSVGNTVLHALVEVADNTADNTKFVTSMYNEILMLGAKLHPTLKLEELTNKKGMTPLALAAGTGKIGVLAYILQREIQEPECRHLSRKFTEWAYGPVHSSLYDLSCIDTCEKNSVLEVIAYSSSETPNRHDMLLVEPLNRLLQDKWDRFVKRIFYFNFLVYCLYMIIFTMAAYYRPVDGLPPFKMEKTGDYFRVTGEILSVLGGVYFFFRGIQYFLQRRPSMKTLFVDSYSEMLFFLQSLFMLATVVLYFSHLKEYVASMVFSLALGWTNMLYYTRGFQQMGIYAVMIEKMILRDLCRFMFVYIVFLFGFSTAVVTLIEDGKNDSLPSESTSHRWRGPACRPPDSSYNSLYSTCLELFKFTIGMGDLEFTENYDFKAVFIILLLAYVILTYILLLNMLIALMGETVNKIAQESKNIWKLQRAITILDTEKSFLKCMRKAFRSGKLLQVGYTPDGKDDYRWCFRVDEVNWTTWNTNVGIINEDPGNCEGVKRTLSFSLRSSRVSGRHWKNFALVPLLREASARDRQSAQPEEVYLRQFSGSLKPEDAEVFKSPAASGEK
Description: Ca2+ influx assay (FLIPR, Fluo-4 AM) of capsaicin-evoked response in cells expressing recombinant TRPV1. The format is cell-based. The note with it: 1321N1 human astrocytoma cells expressing hTRPV1; inhibition of 0.05 μM capsaicin-induced [Ca2+]i increase. The protocol: Dulbecco's modified Eagle medium (D-MEM) (with 4.5 mg/mL glucose) and fetal bovine serum were obtained from Hyclone Laboratories, Inc. (Logan, Utah). Dulbecco's phosphate-buffered saline (D-PBS) (with 1 mg/mL glucose and 3.6 mg/l Na pyruvate, without phenol red), L-glutamine, hygromycin B, and Lipofectamine® were obtained from Life Technologies (Grand Island, N.Y.). G418 sulfate was obtained from Calbiochem-Novabiochem Corp. (San Diego, Calif.). Capsaicin (8-methyl-N-vanillyl-6-nonenamide) was obtained from Sigma-Aldrich, Co. (St. Louis, Mo.). Fluo-4 AM (N-[4-[6-[(acetyloxy)methoxy]-2,7-difluoro-3-oxo-3H-xanthen-9-yl]-2-[2-[2-[bis[2-[(acetyloxy)methoxy]-2-oxyethyl]amino]-5-methylphenoxy]ethoxy]phenyl]-N-[2-[(acetyloxy)methoxy]-2-oxyethyl]-glycine, (acetyloxy)methyl ester) was purchased from Molecular Probes (Eugene, Oreg.).
The cDNAs for the human TRPV1 receptor were isolated by reverse transcriptase-polymerase chain reaction (RT-PCR) from human small intestine poly A+RNA supplied by Clontech (Palo Alto, Calif.) using primers designed surrounding the initiation and termination codons identical to the published sequences (Hayes et al. Pain 2000, 88, 205-215). The resulting cDNA PCR products were subcloned into pCIneo mammalian expression vector (Promega) and fully sequenced using fluorescent dye-terminator reagents (Prism, Perkin-Elmer Applied Biosystems Division) and a Perkin-Elmer Applied Biosystems Model 373 DNA sequencer or Model 310 genetic analyzer. Expression plasmids encoding the hTRPV1 cDNA were transfected individually into 1321N1 human astrocytoma cells using Lipofectamine®. Forty-eight hours after transfection, the neomycin-resistant cells were selected with growth medium containing 800 μg/mL Geneticin (Gibco BRL). Surviving individual colonies were isolated and screened for TRPV1 receptor activity. Cells expressing recombinant homomeric TRPV1 receptors were maintained at 37° C. in D-MEM containing 4 mM L-glutamine, 300 μg/mL G418 (Cal-biochem) and 10% fetal bovine serum under a humidified 5% CO2 atmosphere.
The functional activity of compounds at the TRPV1 receptor was determined with a Ca^2+ influx assay and measurement of intracellular Ca^2+ levels ([Ca^2+]i). All compounds were tested over an 11-point half-log concentration range. Compound solutions were prepared in D-PBS (4× final concentration), and diluted serially across 96-well v-bottom tissue culture plates using a Biomek 2000 robotic automation workstation (Beckman-Coulter, Inc., Fullerton, Calif.). A 0.2 μM solution of the TRPV1 agonist capsaicin was also prepared in D-PBS. The fluorescent Ca^2+ chelating dye Fluo-4 AM was used as an indicator of the relative levels of [Ca^2+]i in a 96-well format using a Fluorescence Imaging Plate Reader (FLIPR) (Molecular Devices, Sunnyvale, Calif.). Cells were grown to confluency in 96-well black-walled tissue culture plates. Then, prior to the assay, the cells were loaded with 100 μL per well of Fluo-4 AM (2 μM, in D-PBS) for 1-2 hours at 23° C. Washing of the cells was performed to remove extracellular Fluo-4 AM (2×1 mL D-PBS per well), and afterward, the cells were placed in the reading chamber of the FLIPR instrument. 50 μL of the compound solutions were added to the cells at the 10 second time mark of the experimental run. Then, after a 3-minute time delay, 50 μL of the capsaicin solution was added at the, 190 second time mark (0.05 μM final concentration)(final volume=200 μL) to challenge the TRPV1 receptor. Time length of the experimental run was 240 seconds. Fluorescence readings were made at 1 to 5 second intervals over the course of the experimental run. The peak increase in relative fluorescence units (minus baseline) was calculated from the 190 second time mark to the end of the experimental run, and expressed as a percentage of the 0.05 μM capsaicin (control) response. […]
`Cc1cccnc1N1CC=C(C(=O)Nc2ccc(C(F)(F)F)cc2)[C@@H](C)C1` (single isomer, unassigned) [Example 9]: the pIC50 was 6.42. The same measure for `C[C@H]1CN(c2ncccc2C(F)(F)F)CC=C1C(=O)Nc1ccc(C(F)(F)F)cc1` (single isomer, unassigned) [Example 10]: 6.32. For the molecule `C[C@@H]1CN(c2ncccc2C(F)(F)F)CC=C1C(=O)Nc1ccc(S(=O)(=O)C(F)(F)F)cc1` (single isomer, unassigned) [Example 11], the pIC50 was 7.40. The same measure for `C[C@H]1CN(c2ncccc2C(F)(F)F)CC=C1C(=O)Nc1ccc(S(=O)(=O)C(F)(F)F)cc1` (single isomer, unassigned) [Example 12]: 6.19; for `C[C@@H]1CN(c2ncccc2C(F)(F)F)CC=C1C(=O)Nc1ccc(C(C)(C)C#N)cc1` (single isomer, unassigned) [Example 13]: 7.05; for `C[C@H]1CN(c2ncccc2C(F)(F)F)CC=C1C(=O)Nc1ccc(C(C)(C)C#N)cc1` (single isomer, unassigned) [Example 14]: 6.15. `Cc1cccnc1N1CC=C(C(=O)Nc2ccc(C(C)(C)C)cc2)[C@H](C)C1` (single isomer, unassigned) [Example 15]: the pIC50 was 7.82. Then `Cc1cccnc1N1CC=C(C(=O)Nc2ccc(C(C)(C)C)cc2)[C@@H](C)C1` (single isomer, unassigned) [Example 16], with 6.21; and `Cc1cccnc1N1CC=C(C(=O)Nc2ccc(C(C)(C)C#N)cc2)[C@H](C)C1` (single isomer, unassigned) [Example 17], with 7.89; and `Cc1cccnc1N1CC=C(C(=O)Nc2ccc(C(F)(F)F)nc2)[C@H](C)C1` (single isomer, unassigned) [Example 19], with 6.72. Then `Cc1cccnc1N1CC=C(C(=O)Nc2ccc(C(F)(F)F)nc2)[C@@H](C)C1` (single isomer, unassigned) [Example 20], with 5.51; and `C[C@@H]1CN(c2ncccc2Cl)CC=C1C(=O)Nc1ccc(S(=O)(=O)C(F)(F)F)cc1` [Example 1, (3S)-3′-chloro-3-methyl-N-{4-[(trifluoromethyl)sulfonyl]phenyl}-3,6-dihydro-2H-1,2′-bipyridine-4-carboxamide], with 7.55. For `C[C@@H]1CN(c2ncccc2Cl)CC=C1C(=O)Nc1ccc(C(F)(F)F)cc1` [Example 2, (3S)-3′-chloro-3-methyl-N-[4-(trifluoromethyl)phenyl]-3,6-dihydro-2H-1,2′-bipyridine-4-carboxamide], the pIC50 was 7.70. The same measure for `Cc1cccnc1N1CC=C(C(=O)Nc2ccc(S(=O)(=O)C(F)(F)F)cc2)[C@H](C)C1` [Example 3, (3S)-3,3′-dimethyl-N-{4-[(trifluoromethyl)sulfonyl]phenyl}-3,6-dihydro-2H-1,2′-bipyridine-4-carboxamide]: 7.70; for `C[C@@H]1CN(c2ncccc2C(F)(F)F)CC=C1C(=O)Nc1ccc(C(F)(F)F)cc1` [Example 4, (3S)-3-methyl-3′-(trifluoromethyl)-N-[4-(trifluoromethyl)phenyl]-3,6-dihydro-2H-1,2′-bipyridine-4-carboxamide]: 7.59. The same measure for `C[C@H]1CN(c2ncccc2Cl)CC=C1C(=O)Nc1ccc(S(=O)(=O)C(F)(F)F)cc1` [Example 5, (3R)-3′-chloro-3-methyl-N-{4-[(trifluoromethyl)sulfonyl]phenyl}-3,6-dihydro-2H-1,2′-bipyridine-4-carboxamide]: 6.64. Then `Cc1cccnc1N1CC=C(C(=O)Nc2ccc(S(=O)(=O)C(F)(F)F)cc2)[C@@H](C)C1` [Example 6, (3R)-3,3′-dimethyl-N-{4-[(trifluoromethyl)sulfonyl]phenyl}-3,6-dihydro-2H-1,2′-bipyridine-4-carboxamide], with 6.12. On to `C[C@H]1CN(c2ncccc2Cl)CC=C1C(=O)Nc1ccc(C(F)(F)F)cc1` [Example 7, (3R)-3′-chloro-3-methyl-N-[4-(trifluoromethyl)phenyl]-3,6-dihydro-2H-1,2′-bipyridine-4-carboxamide], for which the pIC50 was 7.08. The same measure for `Cc1cccnc1N1CC=C(C(=O)Nc2ccc(C(F)(F)F)cc2)[C@H](C)C1` [Example 8, (3S)-3,3′-dimethyl-N-[4-(trifluoromethyl)phenyl]-3,6-dihydro-2H-1,2′-bipyridine-4-carboxamide]: 7.20. Then `Cc1cccnc1N1CC=C(C(=O)Nc2ccc(C(C)(C)C#N)cc2)[C@@H](C)C1` [Example 18, (3R)—N-(4-(2-cyanopropan-2-yl)phenyl)-3-methyl-1-(3-methylpyridin-2-yl)-1,2,3,6-tetrahydropyridine-4-carboxamide], with 5.89.

For orientation: pIC50 means the IC50 on a negative log10 scale, so that one unit is a factor of ten.

(Values after patent publication US7998982B2, “Amide derivatives as TRPV1 antagonists” (Abbott Laboratories, priority 2007, dated 2011).)
